Entries after “also recorded” stand apart in the source; their conditions may differ.
Legend:
[1] = test system: antennae of male P. interpunctella; test: GC-EAD electrophysiology of yeast-produced pheromone, male Plodia interpunctella antennae; settings: extracts of yeast cell pellet and medium
Experimental: (§1) Insect rearing and tissue collection. The E. cautella individuals were reared on an artificial diet at 25±2.0° C. under an L16:D8 photoperiod as previously described in the field. Freshly emerged female adults were collected daily before the scotophase and considered to be 0 d old. The female pupae were collected separately, and the newly emerged adults were maintained in a vial under the same conditions. Laboratory cultures of S. exigua and P. interpunctella were reared at 23±1° C. under a 17:7 L:D photoperiod and 60% relative humidity and fed on wheat-germs based and beans based artificial diet, respectively. The male and female pupae were kept separately. Adults were fed with a 10% honey solution, and two- to three-day-old unmated males were used for the electrophysiological experiments.
Electrophysiology of ZETA yeast produced pheromone. The antennal electrophysiological activity of the yeast-derived pheromone was tested by gas chromatography with electroantennographic detection (GC-EAD). An Agilent 7890 gas chromatograph equipped with a flame ionization detector (FID), an HP-INNOWax column (30 m×0.25 mm i.d., and 0.25 μm film thickness; J&W Scientific, USA) was used. Antennae of male S. exigua and P. interpunctella with both tips cut-off and associated with the head were mounted on a PRG-2 EAG (10× gain) probe (Syntech, Kirchzarten, Germany) using conductive gel (Blågel, Cefar, Malmö, Sweden). The antennal preparation was put in a flow of charcoal-filtered and humidified air that passed through the column outlet. Hydrogen was used as the carrier gas with a constant flow of 1.8 mL/min, and the GC effluent was directed to the FID and EAD by a 1:1 division. The GC inlet was set at 250° C., the transfer line was set at 255° C., and the detector was set at 280° C. The GC oven was programmed from 80° C. for 1 min, then increased to 210° C. at a rate of 10° C./min and held for 10 min. Data were collected with the software GC-EAD Pro Version 4.1 (Syntech).

[2] = test system: antennae of male S. exigua; test: GC-EAD electrophysiology of yeast-produced pheromone, male Spodoptera exigua antennae; settings: extracts of yeast cell pellet and medium
Experimental: as §1
Electrophysiology of ZETA yeast produced pheromone. The antennal electrophysiological activity of the yeast-derived pheromone was tested by gas chromatography with electroantennographic detection (GC-EAD). An Agilent 7890 gas chromatograph equipped with a flame ionization detector (FID), an HP-INNOWax column (30 m×0.25 mm i.d., and 0.25 μm film thickness; J&W Scientific, USA) was used. […]

C/C=C/C/C=C\CCCCCCCCOC(C)=O [ZETA, (Z,E)-9,12-tetradecadienyl acetate]
antennal response (EAD) [1]: distinct antennal responses; also recorded: responded strongly; also recorded: typical antennal responses
antennal response (EAD) [2]: distinct antennal responses; also recorded: responded strongly; also recorded: typical antennal responses

CCCCCCCCCCCCCCOC(C)=O [tetradecanyl acetate]
antennal response (EAD) [1]: minor response

CCCC/C=C\CCCCCCCCOC(C)=O [Z9-14:OAc, (Z)-9-tetradecenyl acetate]
antennal response (EAD) [1]: responded strongly
antennal response (EAD) [2]: responded strongly

— US20240287553A1, “Methods of Production of Double Unsaturated Pheromones Using Metabolic Pathways” (ISCA Technologies, Inc., priority 2022, published 2024)
